Experiment [1] deals with T1, delta opioid receptor (Rattus norvegicus, UniProt P33533).
T1 construct: the forebrains were homogenized in Tris buffer in a Teflon®-glass homogenizer; from tissue; host or cells: forebrain of male Wistar rats, particulate (membrane) preparation
Kind of experiment: Rat brain delta opioid receptor binding assay. As to conditions: rat forebrain, [3H]naltrindole ligand.

For experiment [2], the target named is T2, delta opioid receptor (Mus musculus, UniProt P32300).
T2 construct: NG108-15 cell membranes were purchased from Applied Cell Sciences (Rockville, Md.); host or cells: NG108-15 cell membranes
As to the kind of experiment: [35S]GTPγS binding assay in NG108-15 cell membranes (delta opioid functional assay), 200 nM screen. The format is biochemical. As to conditions: NG108-15 cell membranes; for EC50 / GTPγS δ-RelEfficacy @200 nM: averages if tested more than once; for GTPγS δ-opioid receptor Rel Efficacy: relative efficacy from dose response; for GTPγS δ-RelEfficacy @200 nM: 200 nM test compound, relative to calculated max of SNC80 dose response curve.

The mark [3] stands for this setting: read-out: δ-binding (Naltrindole ligand) Ki.
Setting [4] is: δ-binding (Naltrindole ligand) Ki.
[5] abbreviates: read-out: GTPγS δ-opioid receptor EC50.
[6] abbreviates: GTPγS δ-opioid receptor EC50 (μM).

Like-named read-outs stand apart in the source and are kept apart here.

T1 sequence (P33533 whole entry): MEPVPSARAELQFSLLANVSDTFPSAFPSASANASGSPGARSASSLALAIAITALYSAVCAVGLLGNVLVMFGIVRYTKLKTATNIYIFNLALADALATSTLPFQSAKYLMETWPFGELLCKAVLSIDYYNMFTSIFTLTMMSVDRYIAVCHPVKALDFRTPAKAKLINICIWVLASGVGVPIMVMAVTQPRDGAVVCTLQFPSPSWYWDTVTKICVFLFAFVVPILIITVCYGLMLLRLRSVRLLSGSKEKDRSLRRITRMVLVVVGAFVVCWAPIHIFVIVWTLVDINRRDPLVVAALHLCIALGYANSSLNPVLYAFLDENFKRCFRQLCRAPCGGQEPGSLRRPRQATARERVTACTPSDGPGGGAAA
T2 sequence (P32300 whole entry): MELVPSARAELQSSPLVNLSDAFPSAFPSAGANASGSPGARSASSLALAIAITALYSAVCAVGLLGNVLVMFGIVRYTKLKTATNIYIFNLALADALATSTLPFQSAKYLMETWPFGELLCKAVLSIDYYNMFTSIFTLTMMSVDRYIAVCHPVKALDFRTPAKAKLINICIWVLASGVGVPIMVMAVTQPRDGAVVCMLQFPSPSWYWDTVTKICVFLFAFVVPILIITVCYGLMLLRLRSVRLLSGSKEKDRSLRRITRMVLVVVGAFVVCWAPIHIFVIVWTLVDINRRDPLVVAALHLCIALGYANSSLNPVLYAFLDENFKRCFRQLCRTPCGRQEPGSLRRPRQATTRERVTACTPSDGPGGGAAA

The term Ki denotes the dissociation constant of the complex between target and ligand, obtained from inhibition or displacement. Regarding `COc1ccc(Oc2nc(-c3cnccn3)ncc2NC[C@@H]2CCCN2)cc1` [Cpd 120], the Ki on delta opioid receptor [1] (setting [3]) came to 104 nM.

On to `COc1ccc(Oc2nc(-c3cncc(F)c3)ncc2NCC2CNCCO2)cc1` (stereo not shown) [Cpd 276], for which the Ki on delta opioid receptor [1] (setting [3]) turned out to be 227 nM.

Broadly, the EC50 is the concentration at which the effect is half-maximal. `COc1ccc(Oc2nc(-c3cncnc3)ncc2NC[C@@H]2CCCN2)c(F)c1F` [Cpd 103] yielded an inhibitory constant (Ki) on delta opioid receptor [1] (setting [4]) of 11 nM. Further, the EC50 at delta opioid receptor [2] (setting [5]) worked out at 0.311 µM.

On to `COc1ccc(Oc2nc(-c3cncc(C#N)c3)ncc2NCC2COCCN2)cc1` (racemic) [Cpd 279], for which, on delta opioid receptor [1] (setting [3]), the Ki amounted to 5 nM. Further, on delta opioid receptor [2] (setting [5]), the 50% effective concentration (EC50) was found to be 0.17 µM. Further, the “GTPγS δ-opioid receptor Rel Efficacy” value at delta opioid receptor [2] turned out to be 1.004.

As to `COc1cccc(Oc2nc(-c3cncnc3)ncc2NC[C@@H]2CCCN2)c1` [Cpd 99], the inhibitory constant (Ki) at delta opioid receptor [1] (setting [4]) is 59 nM. The half-maximal effective concentration (EC50) on delta opioid receptor [2] (setting [5]) came out at 0.939 µM.

At delta opioid receptor [1] (setting [4]), `FC(F)Oc1ccc(Oc2nc(-c3cncnc3)ncc2NC[C@@H]2CCCN2)cc1` [Cpd 111] came in with an inhibition constant (Ki) of 9 nM. For the same compound, the EC50 at delta opioid receptor [2] (setting [5]) is 0.491 µM.

Turning to `COc1ccc(Oc2nc(-c3cncc(C#N)c3)ncc2NC2CCC(N)CC2)cc1` (stereo not shown) [Cpd 298], the inhibition constant Ki at delta opioid receptor [1] (setting [4]) was determined as 4 nM. Further, at delta opioid receptor [2] (setting [6]), the 50% effective concentration (EC50) is 0.087 µM. In addition, the “GTPγS δ-opioid receptor Rel Efficacy” value at delta opioid receptor [2] came to 1.012.

Take `CCCCOc1ccc(Oc2nc(-c3cncnc3)ncc2NC[C@@H]2CCCN2)cc1` [Cpd 126]: the inhibition constant (Ki) at delta opioid receptor [1] (setting [3]) was determined as 565 nM.

Regarding `COc1ccc(Oc2nc(-c3cncnc3)ncc2NC[C@H]2CCCC[C@@H]2N)cc1` [Cpd 300], on delta opioid receptor [1] (setting [3]), the inhibition constant (Ki) is 21 nM. Also, the 50% effective concentration (EC50) at delta opioid receptor [2] (setting [5]) was found to be 1.05 µM. In addition, at delta opioid receptor [2], the “GTPγS δ-opioid receptor Rel Efficacy” value turned out to be 0.968.

Take `COc1ccc(Oc2nc(-c3cncnc3)ncc2NCC2CNCCO2)cc1` (stereo not shown) [Cpd 277]: the Ki on delta opioid receptor [1] (setting [3]) is 32 nM. The EC50 at delta opioid receptor [2] (setting [5]) was 1.09 µM. In addition, the “GTPγS δ-opioid receptor Rel Efficacy” value on delta opioid receptor [2] was determined as 1.012.

Take `COc1ccc(Oc2nc(-c3cc(Cl)cc(Cl)c3)ncc2NC[C@@H]2CCCN2)cc1` [Cpd 94]: the Ki on delta opioid receptor [1] (setting [3]) was determined as 143 nM.

As for `Cc1nc2ccc(Oc3nc(-c4cncc(C#N)c4)ncc3NC[C@@H]3CCCN3)cc2s1` [Cpd 88], at delta opioid receptor [1] (setting [3]), the inhibition constant (Ki) came out at 14 nM. Moreover, at delta opioid receptor [2] (setting [5]), the EC50 stood at 0.478 µM. The “GTPγS δ-opioid receptor Rel Efficacy” value on delta opioid receptor [2] turned out to be 0.538.

As to `N#Cc1cncc(-c2ncc(NC[C@@H]3CCCN3)c(Oc3ccc(OCC(F)(F)F)cc3)n2)c1` [Cpd 122], the Ki on delta opioid receptor [1] (setting [3]) was determined as 122 nM.

Take `COc1ccc(Oc2nc(-c3cccc4cc[nH]c34)ncc2NC[C@@H]2CCCN2)cc1` [Cpd 119]: the Ki at delta opioid receptor [1] (setting [3]) was determined as 4020 nM.

In the case of `COc1ccc(Oc2nc(-c3cncc(S(C)(=O)=O)c3)ncc2NC[C@@H]2CCCN2)cc1` [Cpd 108], the inhibitory constant (Ki) on delta opioid receptor [1] (setting [3]) was determined as 107 nM.

As to `CCCOc1ccc(Oc2nc(-c3cncnc3)ncc2NC[C@@H]2CCCN2)cc1` [Cpd 114], the inhibition constant Ki on delta opioid receptor [1] (setting [4]) was determined as 8 nM. For the same compound, on delta opioid receptor [2] (setting [5]), the EC50 amounted to 0.306 µM.

In the case of `Fc1cncc(-c2ncc(NC[C@@H]3CCCN3)c(Oc3ccc(OC(F)F)cc3)n2)c1` [Cpd 112], the Ki at delta opioid receptor [1] (setting [3]) amounted to 6 nM. In addition, at delta opioid receptor [2] (setting [5]), the concentration giving a half-maximal response (EC50) came to 0.33 µM. Moreover, the “GTPγS δ-opioid receptor Rel Efficacy” value at delta opioid receptor [2] came out at 1.082.

As to `CCCCOc1ccc(Oc2nc(-c3cncc(C#N)c3)ncc2NC[C@@H]2CCCN2)cc1` [Cpd 125], the Ki on delta opioid receptor [1] (setting [4]) is 78 nM.

The compound `COc1ccc(Oc2nc(-c3ccc(C#N)nc3)ncc2NC[C@@H]2CCCN2)cc1` [Cpd 95] showed a Ki on delta opioid receptor [1] (setting [4]) of 11 nM. The concentration giving a half-maximal response (EC50) on delta opioid receptor [2] (setting [5]) worked out at 0.708 µM.

For `Cc1nc2ccc(Oc3nc(-c4cncnc4)ncc3NC[C@@H]3CCCN3)cc2s1` [Cpd 91], the inhibition constant Ki at delta opioid receptor [1] (setting [4]) came out at 22 nM. Also, the concentration giving a half-maximal response (EC50) at delta opioid receptor [2] (setting [5]) was greater than 10 µM.

The compound `COc1c(F)cc(Oc2nc(-c3cncnc3)ncc2NC[C@@H]2CCCN2)cc1F` [Cpd 97] came in with an inhibitory constant (Ki) on delta opioid receptor [1] (setting [4]) of 39 nM. The EC50 at delta opioid receptor [2] (setting [5]) turned out to be 7.12 µM.

The compound `Cc1nc2ccc(Oc3nc(-c4cncc(C#N)c4)ncc3NC[C@@H]3CCCN3)cc2s1` [Cpd 90] returned a Ki on delta opioid receptor [1] (setting [4]) of 9 nM. For the same compound, the EC50 on delta opioid receptor [2] (setting [5]) amounted to 0.923 µM.

On delta opioid receptor [1] (setting [4]), `CCCOc1ccc(Oc2nc(-c3cncc(F)c3)ncc2NC[C@@H]2CCCN2)cc1` [Cpd 115] had a Ki of 52 nM. In addition, the EC50 on delta opioid receptor [2] (setting [5]) was 2.71 µM.

`COc1ccc(Oc2nc(-c3cncnc3)ncc2NC[C@@H]2C[C@H](F)CN2)cc1` [Cpd 89] yielded an inhibition constant (Ki) at delta opioid receptor [1] (setting [4]) of 10 nM. Moreover, at delta opioid receptor [2] (setting [5]), the EC50 turned out to be 1.31 µM.

On delta opioid receptor [1] (setting [4]), `COc1ccc(Oc2nc(-c3cncc(F)c3)ncc2NC[C@@H]2CCCN2)c(F)c1F` [Cpd 102] returned a Ki of 3 nM. At delta opioid receptor [2] (setting [5]), the EC50 is 0.255 µM.

`COc1ccc(Oc2nc(-c3ccc4cc[nH]c4c3)ncc2NC[C@@H]2CCCN2)cc1` [Cpd 118]: the inhibition constant Ki at delta opioid receptor [1] (setting [3]) was found to be 155 nM.

As to `CCCCOc1ccc(Oc2nc(-c3cncc(F)c3)ncc2NC[C@@H]2CCCN2)cc1` [Cpd 127], the Ki on delta opioid receptor [1] (setting [3]) turned out to be 224 nM.

The compound `COc1ccc(Oc2nc(-c3cncc(C#N)c3)ncc2NCCN)cc1` [Cpd 293] came in with a Ki at delta opioid receptor [1] (setting [4]) of 8 nM. In addition, the EC50 at delta opioid receptor [2] (setting [5]) is 0.317 µM.

In the case of `COc1c(F)cc(Oc2nc(-c3cncc(C#N)c3)ncc2NC[C@@H]2CCCN2)cc1F` [Cpd 96], the inhibitory constant (Ki) at delta opioid receptor [1] (setting [4]) was found to be 35 nM. On delta opioid receptor [2] (setting [5]), the EC50 was determined as 0.749 µM.

`COc1ccc(Oc2nc(-c3cncc(C#N)c3)ncc2NC[C@H](C)N)cc1` [Cpd 292] registered an inhibitory constant (Ki) at delta opioid receptor [1] (setting [4]) of 2 nM. In addition, the EC50 at delta opioid receptor [2] (setting [5]) amounted to 0.363 µM.

As to `COc1ccc(Oc2nc(-c3cncc(C#N)c3)ncc2NCC2CNCCO2)cc1` (stereo not shown) [Cpd 275], the Ki at delta opioid receptor [1] (setting [4]) worked out at 46 nM. The EC50 at delta opioid receptor [2] (setting [5]) worked out at 0.922 µM.

`COc1ccc(Oc2nc(-c3cccc4[nH]ccc34)ncc2NC[C@@H]2CCCN2)cc1` [Cpd 117]: at delta opioid receptor [1] (setting [3]), the Ki came out at 157 nM.

As to `Cc1ccccc1Oc1nc(-c2cncc(Cl)c2)ncc1NC[C@@H]1CCCN1` [Cpd 227], on delta opioid receptor [2], the “GTPγS δ-RelEfficacy @200 nM” value was 0.480 and the “GTPγS δ-opioid receptor Rel Efficacy” value stood at 1.093. In addition, at delta opioid receptor [2] (setting [5]), the concentration giving a half-maximal response (EC50) came out at 0.246 µM.

In the case of `COc1ccc(Oc2nc(-c3cncc(Cl)c3)ncc2NC[C@@H]2C[C@@H](F)CN2)cc1` [Cpd 194], on delta opioid receptor [2], the “GTPγS δ-RelEfficacy @200 nM” value is recorded as 0.665 and the “GTPγS δ-opioid receptor Rel Efficacy” value was 1.034. Also, the concentration giving a half-maximal response (EC50) at delta opioid receptor [2] (setting [6]) was determined as 0.022 µM.

For `Cc1ccc(Oc2nc(-c3cncc(F)c3)ncc2NC[C@@H]2CCCN2)cc1F` [Cpd 185], on delta opioid receptor [2], the “GTPγS δ-RelEfficacy @200 nM” value is recorded as 0.447 and the “GTPγS δ-opioid receptor Rel Efficacy” value amounted to 1.014. Besides, on delta opioid receptor [2] (setting [5]), the half-maximal effective concentration (EC50) is 0.101 µM.

As for `Cc1cccc(Oc2nc(-c3cccnc3)ncc2NC[C@@H]2CCCN2)c1` [Cpd 203], the “GTPγS δ-RelEfficacy @200 nM” value at delta opioid receptor [2] was 0.096.

Compound `COc1ccc(Oc2nc(-c3cncc(OC)c3)ncc2N[C@@H]2CCCNC2)cc1` [Cpd 246] showed a 50% effective concentration (EC50) at delta opioid receptor [2] (setting [6]) of 0.078 µM. For the same compound, on delta opioid receptor [2], the “GTPγS δ-opioid receptor Rel Efficacy” value is 1.043.

For the compound `COc1ccc(Oc2nc(-c3cnc(F)c(C)c3)ncc2NC[C@@H]2CCCN2)cc1` [Cpd 262], the EC50 at delta opioid receptor [2] (setting [5]) amounted to 0.037 µM. The “GTPγS δ-opioid receptor Rel Efficacy” value at delta opioid receptor [2] was found to be 0.957.

As to `Cc1cccc(Oc2nc(-c3cncc(Cl)c3)ncc2NC[C@@H]2CCCN2)c1` [Cpd 201], the “GTPγS δ-RelEfficacy @200 nM” value on delta opioid receptor [2] is listed as 0.148.

For `Cc1ccc(Oc2nc(-c3cncc(C#N)c3)ncc2NC[C@@H]2CCCN2)cc1F` [Cpd 183], on delta opioid receptor [2], the “GTPγS δ-RelEfficacy @200 nM” value is 0.723 and the “GTPγS δ-opioid receptor Rel Efficacy” value is 1.091. For the same compound, the EC50 on delta opioid receptor [2] (setting [6]) came to 0.091 µM.

For `COc1ccc(Oc2nc(-c3cccnc3)ncc2N[C@@H]2CCNC2)cc1` [Cpd 224], at delta opioid receptor [2], the “GTPγS δ-RelEfficacy @200 nM” value was 0.460 and the “GTPγS δ-opioid receptor Rel Efficacy” value is reported as 1.104. The EC50 at delta opioid receptor [2] (setting [5]) came to 0.214 µM.

`COc1ccc(Oc2nc(-c3cccnc3)ncc2N[C@H]2CCC[C@@H](N)C2)cc1` [Cpd 321]: the midpoint of the response at delta opioid receptor [2] (setting [6]), the EC50, lay at 0.005 µM. Moreover, the “GTPγS δ-opioid receptor Rel Efficacy” value on delta opioid receptor [2] was determined as 1.022.

Values taken from patent US8513271B2, “Pyrimidine compounds as delta opioid receptor modulators” (Janssen Pharmaceutica, NV, priority 2009, dated 2013).
